This is an account of results in patent US20140005163A1 (NOVARTIS AG, priority 2010, published 2014).

By pIC50 is commonly meant the negative decadic logarithm of the IC50, by convention in mol/L.

The subject of assay [1] is PKB Ser473 phosphorylation in Rat1-myr-HA-p110 beta cells. As to the kind of experiment: Reverse protein array assay, PKB Ser473 phosphorylation in Rat1-myr-p110 beta cells. The conditions noted are these: 0.5 h, pAkt Ser473, 30 minutes incubation, read-out: p-PKB IC50. In kind it is cell-based. An outline of the steps: (§1)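 Compound exposure lasted 30 min in Rat1 cells bearing membrane-targeted HA-p110 isoforms, using 8 serial concentrations. Arrayed lysates, each spotted at four dilutions, gave relative fluorescence signals for phospho-Ser473 PKB.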

The target in assay [2] is T1, PI3K gamma (Homo sapiens, UniProt P48736).
T1 construct: His tag (C); made in house; host or cells: baculovirus (pVL1393); Tn5 or TiniPro insect cells; construct from Roger Williams lab, MRC LMB
T1 sequence (P48736 144-1102 limits assumed): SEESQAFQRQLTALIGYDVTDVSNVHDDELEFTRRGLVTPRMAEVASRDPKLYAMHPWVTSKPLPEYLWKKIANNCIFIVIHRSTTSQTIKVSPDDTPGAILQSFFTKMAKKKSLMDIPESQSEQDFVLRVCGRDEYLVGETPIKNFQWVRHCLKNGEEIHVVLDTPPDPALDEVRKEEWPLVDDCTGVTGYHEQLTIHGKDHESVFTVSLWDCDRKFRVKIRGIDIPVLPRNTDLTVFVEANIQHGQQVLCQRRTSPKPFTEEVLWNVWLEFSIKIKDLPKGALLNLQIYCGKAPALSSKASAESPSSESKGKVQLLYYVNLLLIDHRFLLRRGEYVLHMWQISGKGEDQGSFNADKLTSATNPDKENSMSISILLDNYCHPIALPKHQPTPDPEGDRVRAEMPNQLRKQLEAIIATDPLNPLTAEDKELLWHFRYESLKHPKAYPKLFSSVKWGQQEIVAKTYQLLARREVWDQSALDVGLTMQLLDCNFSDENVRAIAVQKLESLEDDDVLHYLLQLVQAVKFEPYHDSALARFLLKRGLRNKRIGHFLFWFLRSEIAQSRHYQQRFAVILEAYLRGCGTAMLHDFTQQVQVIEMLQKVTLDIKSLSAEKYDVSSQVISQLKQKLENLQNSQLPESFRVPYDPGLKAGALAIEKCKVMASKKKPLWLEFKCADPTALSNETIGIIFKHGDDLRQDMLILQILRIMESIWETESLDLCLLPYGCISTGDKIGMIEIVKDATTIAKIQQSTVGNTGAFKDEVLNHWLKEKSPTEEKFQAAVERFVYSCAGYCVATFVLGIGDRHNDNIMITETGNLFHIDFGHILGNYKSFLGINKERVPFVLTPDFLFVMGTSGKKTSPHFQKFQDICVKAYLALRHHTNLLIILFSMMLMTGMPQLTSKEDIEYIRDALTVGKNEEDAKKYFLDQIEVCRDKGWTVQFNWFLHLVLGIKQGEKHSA
As to the kind of experiment: PI3K gamma kinase assay (Kinase-Glo luminescence). The format is biochemical. An outline of the steps:
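PI3Kγ (150 nM) reaction run 120 min at room temperature with phosphatidylinositol substrate (10 μg/mL) and ATP (1 μM) in Tris pH 7.5 buffer containing MgCl2, NaCl, CHAPS and DTT. Remaining ATP detected by Kinase-Glo luminescence; 8 concentrations per compound, IC50 from 4-parameter curve fitting.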
In general terms: Kinase-Glo reads ATP consumption through a luciferase reaction.

The subject of assay [3] is PKB Ser473 phosphorylation in Rat1-myr-HA-p110 delta cells. As to the kind of experiment: Reverse protein array assay, PKB Ser473 phosphorylation in Rat1-myr-p110 delta cells. In kind it is cell-based. The conditions noted are these: read-out: p-PKB IC50. An outline of the steps:
as §1

Assay [4] relates to PKB Ser473 phosphorylation in Rat1-myr-HA-p110 alpha cells. As to the kind of experiment: Reverse protein array assay, PKB Ser473 phosphorylation in Rat1-myr-p110 alpha cells. The format is cell-based. The conditions noted are these: 0.5 h, pAkt Ser473, 30 minutes compound incubation, read-out: p-PKB IC50. In a few lines: as §1
Assay [5] relates to S6 Ribosomal Protein phosphorylation Ser235/236 in TSC1 null mouse embryo fibroblast (MEF) cells. As to the kind of experiment: Reverse protein array assay, S6 Ribosomal Protein phosphorylation Ser235/236 in TSC1 null MEF cells. The format is cell-based. Particulars: 1 h, pS6 ribosomal protein Ser235/236, 60 minutes incubation, read-out: p-S6 IC50. An outline of the steps:
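TSC1−/− MEFs, seeded and held ≥20 h at 37 °C/5% CO2, were exposed to 8-step serial compound dilutions (0.02% DMSO final; DMSO vehicle control) for 60 min at 37 °C. Cells were then lysed on ice for 10 min and lysates spotted onto reverse protein array chips.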

Molecules are shown by their SMILES. pIC50: −log10 of the molar value.

Take `Cc1cc(-n2c(=O)n(C)c3cnc4ccc(-c5ccc(N(C)C)nc5)cc4c32)n(C)n1` [Example 4.6, 8-(6-Dimethylamino-pyridin-3-yl)-1-(2,5-dimethyl-2H-pyrazol-3-yl)-3-methyl-1,3-dihydro-imidazo[4,5-c]quinolin-2-one]: the pIC50 in assay [1] was 7.14; in assay [2], 6.32; in assay [3], 6.69; in assay [4], 7.52.
`COCc1ccc(-c2ccc3ncc4c(c3c2)n(-c2cn(C(C)C)nc2C)c(=O)n4C)cn1` [Example 105, 1-(1-Isopropyl-3-methyl-1H-pyrazol-4-yl)-8-(6-methoxymethyl-pyridin-3-yl)-3-methyl-1,3-dihydro-imidazo[4,5-c]quinolin-2-one]: the pIC50 was 7.39 in assay [1], 6.51 in assay [2], 6.79 in assay [3] and 7.11 in assay [4].
For the compound `Cc1nn(C)cc1-n1c(=O)n(C)c2cnc3ccc(-c4cnc(CO)c(OC(CF)CF)c4)cc3c21` [Example 192, 1-(1,3-Dimethyl-1H-pyrazol-4-yl)-8-[5-(2-fluoro-1-fluoromethyl-ethoxy)-6-hydroxymethyl-pyridin-3-yl]-3-methyl-1,3-dihydro-imidazo[4,5-c]quinolin-2-one], the pIC50 is 7.42 in assay [1], 7.14 in assay [3], 8.30 in assay [5] and 7.92 in assay [4].
Taken in the same sequence, the figures for `CNc1ncc(-c2ccc3ncc4c(c3c2)n(-c2cn(C(C)C)nc2C)c(=O)n4C)cc1F` [Example 141.3, 8-(5-Fluoro-6-methylamino-pyridin-3-yl)-1-(1-isopropyl-3-methyl-1H-pyrazol-4-yl)-3-methyl-1,3-dihydro-imidazo[4,5-c]quinolin-2-one] were 7.89, 7.46, 8.70 and 8.00.
Regarding `CNc1cc(-c2ccc3ncc4c(c3c2)n(-c2cn(C)nc2C)c(=O)n4C)cnc1C` [Example 163, 1-(1,3-Dimethyl-1H-pyrazol-4-yl)-3-methyl-8-(6-methyl-5-methylamino-pyridin-3-yl)-1,3-dihydro-imidazo[4,5-c]quinolin-2-one], the pIC50 is more than 8.30 in assay [1], 7.92 in assay [3], 8.70 in assay [5] and more than 8.30 in assay [4].
On to `Cc1cnn(C)c1-n1c(=O)n(C)c2cnc3ccc(-c4cncc(OC(C)C)c4)cc3c21` [Example 58.3, 1-(2,4-Dimethyl-2H-pyrazol-3-yl)-8-(5-isopropoxy-pyridin-3-yl)-3-methyl-1,3-dihydro-imidazo[4,5-c]quinolin-2-one], for which the pIC50 was 6.55 in assay [1], 6.24 in assay [3], 6.76 in assay [5] and 6.42 in assay [4].
The corresponding values for `CCn1cc(-n2c(=O)n(C)c3cnc4ccc(-c5cnc(COC)c(OC(C)C)c5)cc4c32)c(C)n1` [Example 191.2, 1-(1-Ethyl-3-methyl-1H-pyrazol-4-yl)-8-(5-isopropoxy-6-methoxymethyl-pyridin-3-yl)-3-methyl-1,3-dihydro-imidazo[4,5-c]quinolin-2-one] are 7.24, 7.06, 8.30 and 7.57.
As for `Cc1nn(C)cc1-n1c(=O)n(C)c2cnc3ccc(-c4cnc5ccn(C)c5c4)cc3c21` [Example 129, 1-(1,3-Dimethyl-1H-pyrazol-4-yl)-3-methyl-8-(1-methyl-1H-pyrrolo[3,2-b]pyridin-6-yl)-1,3-dihydro-imidazo[4,5-c]quinolin-2-one], the negative logarithm of the IC50 (pIC50) was 7.80 in assay [1], 7.34 in assay [3], 9.00 in assay [5] and 7.68 in assay [4].
In the case of `CNC(=O)c1ccc(-c2ccc3ncc4c(c3c2)n(-c2c(C)nn(C)c2C)c(=O)n4C)cn1` [Example 15.2, 5-[3-Methyl-2-oxo-1-(1,3,5-trimethyl-1H-pyrazo1-4-yl)-2,3-dihydro-1H-imidazo[4,5-c]quinolin-8-yl]-pyridine-2-carboxylic acid methylamide], the figures for the pIC50 in assay [1], in assay [2] and in assay [4] were 6.28, 6.26 and 6.45, respectively.
As for `CCOc1cc(-c2ccc3ncc4c(c3c2)n(-c2cn(C)nc2C)c(=O)n4C)cnc1CC` [Example 187, 1-(1,3-Dimethyl-1H-pyrazol-4-yl)-8-(5-ethoxy-6-ethyl-pyridin-3-yl)-3-methyl-1,3-dihydro-imidazo[4,5-c]quinolin-2-one], the pIC50 is 7.43 in assay [1], 7.62 in assay [3], 8.72 in assay [5] and 8.22 in assay [4].
`CNc1ncc(-c2ccc3ncc4c(c3c2)n(-c2c(C)nn(C)c2C)c(=O)n4C)cc1C(F)(F)F` [Example 144.1, 3-Methyl-8-(6-methylamino-5-trifluoromethyl-pyridin-3-yl)-1-(1,3,5-trimethyl-1H-pyrazol-4-yl)-1,3-dihydro-imidazo[4,5-c]quinolin-2-one]: the negative logarithm of the IC50 (pIC50) was 7.31 in assay [1], 7.08 in assay [3], 8.70 in assay [5] and 7.59 in assay [4].
In the case of `COc1ncc(-c2ccc3ncc4c(c3c2)n(-c2cn(C)nc2Cl)c(=O)n4C)cc1N` [Example 89, 8-(5-Amino-6-methoxy-pyridin-3-yl)-1-(3-chloro-1-methyl-1H-pyrazol-4-yl)-3-methyl-1,3-dihydro-imidazo[4,5-c]quinolin-2-one], the pIC50 is more than 8.30 in assay [1], 8.15 in assay [3], more than 9.30 in assay [5] and more than 8.30 in assay [4].
Consider `CCc1ncc(-c2ccc3ncc4c(c3c2)n(-c2cn(C)nc2C)c(=O)n4C)cc1N` [Example 208, 8-(5-Amino-6-ethyl-pyridin-3-yl)-1-(1,3-dimethyl-1H-pyrazol-4-yl)-3-methyl-1,3-dihydro-imidazo[4,5-c]quinolin-2-one], for which the pIC50 in assay [1] is 7.77; in assay [3], 7.08; in assay [5], 8.30; in assay [4] it was 7.70.
The corresponding values for `Cc1nn(C)cc1-n1c(=O)n(C)c2cnc3ccc(-c4cncc(C5(C#N)CCC5)c4)cc3c21` [Example 221.1, 1-{5-[1-(1,3-Dimethyl-1H-pyrazol-4-yl)-3-methyl-2-oxo-2,3-dihydro-1H-imidazo[4,5-c]quinolin-8-yl]-pyridin-3-yl}-cyclobutanecarbonitrile] are 7.70, 7.39, 9.00 and 7.85.
The corresponding values for `CCOc1cc(-c2ccc3ncc4c(c3c2)n(-c2c(C)nn(CC(=O)N(C)C)c2C)c(=O)n4C)cnc1C` [Example 85.3, 2-{4-[8-(5-Ethoxy-6-methyl-pyridin-3-yl)-3-methyl-2-oxo-2,3-dihydro-imidazo[4,5-c]quinolin-1-yl]-3,5-dimethyl-pyrazol-1-yl}-N,N-dimethyl-acetamide] are 6.12, 6.13, 6.95 and 6.53.
As for `CCOc1ncc(-c2ccc3ncc4c(c3c2)n(-c2cn(C)nc2C)c(=O)n4C)cc1NC(C)=O` [Example 65, N-{5-[1-(1,3-Dimethyl-1H-pyrazol-4-yl)-3-methyl-2-oxo-2,3-dihydro-1H-imidazo[4,5-c]quinolin-8-yl]-2-ethoxy-pyridin-3-yl}-acetamide], the pIC50 in assay [1] is 7.37; in assay [3] it was 6.99; in assay [5], 7.18; in assay [4] it was 7.33.
As for `CCNc1cc(-c2ccc3ncc4c(c3c2)n(-c2cn(CC)nc2C)c(=O)n4C)cnc1C` [Example 87.3, 8-(5-Ethylamino-6-methyl-pyridin-3-yl)-1-(1-ethyl-3-methyl-1H-pyrazol-4-yl)-3-methyl-1,3-dihydro-imidazo[4,5-c]quinolin-2-one], the pIC50 in assay [1] is more than 8.30; in assay [3] it was 8.15; in assay [5] it was 8.22; in assay [4] it was more than 8.30.
For the compound `CCNc1cc(-c2ccc3ncc4c(c3c2)n(-c2cn(C)nc2Cl)c(=O)n4C)cnc1C` [Example 87.2, 1-(3-Chloro-1-methyl-1H-pyrazol-4-yl)-8-(5-ethylamino-6-methyl-pyridin-3-yl)-3-methyl-1,3-dihydro-imidazo[4,5-c]quinolin-2-one], the pIC50 in assay [1] was more than 8.30; in assay [3] it was more than 8.30; in assay [5], 9.00; in assay [4], more than 8.30.
With `Cc1nn(C)cc1-n1c(=O)n(C)c2cnc3ccc(-c4ccc(N5CCNCC5)nc4)cc3c21` [Example 126, 1-(1,3-Dimethyl-1H-pyrazol-4-yl)-3-methyl-8-(6-piperazin-1-yl-pyridin-3-yl)-1,3-dihydro-imidazo[4,5-c]quinolin-2-one], the pIC50 in assay [1] is 6.58; in assay [3] it was 6.58; in assay [5] it was 8.27; in assay [4], 6.85.
